Source: patent US4543255A, “Carbocyclic analogs of purine 2'-deoxyribofuranosides” (Southern Research Institute, priority 1984, dated 1985)
≈ marks a conversion by molar mass, not a printed value. Entries after “also recorded” stand apart in the source; their conditions may differ. Where two headings read alike, the source gives them in different places.

Legend:
[1] = tested on: Herpes Simplex Virus Type 2, Strain MS; assay: antiviral activity vs herpes simplex virus type 2 (virus-induced cytopathogenic effects in host cells); assay type: cell-based; settings: for VR (Virus Rating): VR ≥1 indicates definite antiviral activity, 0.5-0.9 marginal to moderate; for EC50: read-out: MIC50 (concentration for 50% inhibition of virus-induced cytopathogenic effects); for antiviral activity against HSV-2 (in words): comparisons are with Ara-A (positive control)
Description: (§1) Certain representatives of Formulas V-VIII have potent antiviral activity and may be useful for the treatment of virus-induced diseases. The antiviral activity of compounds represented by Formulas V-VIII was measured as a virus rating (VR), and the potency (MIC50) was determined as the concentration of the tested compound required to inhibit virus-induced cytopathogenic effects in host cells by 50%. Carbocyclic analogs of 2'-deoxyribofuranosides represented by Formulas V-VIII have unequivocal and generally high activity in inhibiting replication of both type 1 herpes simplex virus (HSV-1) and type 2 herpes simplex virus (HSV-2). […] Notable examples are the carbocyclic analogs of 2,6-diaminopurine 2'-deoxyribofuranoside (Example 5), 2'-deoxyguanosine (Example 6), 2'-deoxythioguanosine (Example 7), 2,6-diamino-8-azapurine 2'-deoxyribofuranoside (Example 9), and 2'-deoxy-8-azaguanosine (Example 10).
(§2) Carbocyclic analogs (Formulas (V-VIII) of 2'-deoxyribofuranoside derivatives of 2-amino-6-substituted-purines and of 2-amino-6-substituted-8-azapurines were tested for antiviral activity against viruses that replicate in mammalian cells growing in cell culture. The results of these tests against herpes simplex viruses are summarized in Table 1. The Virus Rating (VR) is a weighted measurement of antiviral activity determined by the method of Ehrlich et al., Annals of the New York Academy of Science, volume 130, pages 5-16, 1965. In tests carried out by this method, a VR of 0.5-0.9 indicates marginal to moderate antiviral activity, and a VR equal to or greater than 1 indicates definite antiviral activity. The higher the value of VR, the greater is the antiviral activity. The MIC50 (minimum inhibitory concentration, 50%) is the concentration of a test compound required for 50% inhibition of virus-induced cytopathogenic effects. The 2'-deoxyribofuranoside analogs of Examples 4-10 have unequivocal and selective antiviral activity against both type 1 and type 2 strains of herpes simplex virus.
(§3) ^a Antiviral evaluations were performed with HSV1 and HSV2 replicatin
(§4) either in secondary cultures of rabbit kidney cells or in Vero cells.
(§5) ^b 9D-Arabinofuranosyladenine was tesed as a positive control; the
(§6) range of values of VR and MIC50 came from several tests with either
(§7) rabbit kidney cells or Vero cells as the host cells.

[2] = tested on: Herpes Simplex Virus Type 1, Strain 377; assay: antiviral activity vs herpes simplex virus type 1 (virus-induced cytopathogenic effects in host cells); assay type: cell-based; settings: for VR (Virus Rating): VR ≥1 indicates definite antiviral activity, 0.5-0.9 marginal to moderate; for EC50: Human alphaherpesvirus 1, Vero, read-out: MIC50 (concentration for 50% inhibition of virus-induced cytopathogenic effects); for antiviral activity against HSV-1 (in words): comparisons are with Ara-A (positive control)
Description: as §1, §2, §3, §4, §5, §6, §7

[3] = HSV-2 strain MS, rabbit kidney cells or Vero cells
[4] = Human alphaherpesvirus 2, HSV-2 strain MS, rabbit kidney cells or Vero cells
[5] = HSV-1 strain 377, rabbit kidney cells or Vero cells

Row | Compound | VR (Virus Rating) [1, 3] | EC50 [1, 4] [µg/mL] | VR (Virus Rating) [2, 5] | EC50 [2, 5] [µg/mL] | antiviral activity against HSV-2 (in words) [1] | antiviral activity against HSV-1 (in words) [2] | MIC50 (concentration for 50% inhibition of virus-induced cytopathogenic effects) [2, 5] [µg/mL] | EC50 ([1]; Human alphaherpesvirus 2, Vero) [µg/mL] | EC50 [2] [µg/mL]
1 | Nc1nc(Cl)c2ncn([C@@H]3C[C@H](CO)[C@@H](O)C3)c2n1 (relative stereo) [Example 4, (1α, 2β, 4α)-4-(2-Amino-6-chloro-9H-purin-9-yl)-2-hydroxycyclopentanemethanol] | 2.0 | 37 (≈ 130 µM) | 1.9 | 8.1 (≈ 28.5 µM) |  |  |  |  | 
2 | Nc1nc(N)c2ncn([C@@H]3C[C@H](CO)[C@@H](O)C3)c2n1 (relative stereo) [Example 5, (1α, 2β, 4α)-4-(2,6-Diamino-9H-purin-9-yl)-2-hydroxycyclopentanemethanol] | 2.9 | 2.4 (≈ 9.08 µM) |  | 0.6 (≈ 2.27 µM) | equivalent or superior in activity and potency to Ara-A; also recorded: markedly more effective than was Ara-A | more active (VR=4-5) and more potent (lower MIC50) | 0.3 |  | 
3 | Nc1nc2c(ncn2[C@@H]2C[C@H](CO)[C@@H](O)C2)c(=O)[nH]1 (relative stereo) [Example 6, 2-Amino-1,9-dihydro-9-[(1α, 3β, 4α)-3-hydroxy-4-(hydroxymethyl)cyclopentyl]-6H-purin-6-one] | 3.7 | 0.8 (≈ 3.02 µM) | ≥ 4.6 | < 0.3 | equivalent or superior in activity and potency to Ara-A; also recorded: markedly more effective than was Ara-A | more active (VR=4-5) and more potent (lower MIC50) |  |  | 
4 | Nc1nc2c(ncn2[C@@H]2C[C@H](CO)[C@@H](O)C2)c(=S)[nH]1 (relative stereo) [Example 7] | 1.7 | 32 (≈ 114 µM) |  | < 3.2 |  | more active (VR=4-5) and more potent (lower MIC50) | 1.8 |  | 
5 | Nc1nc(Cl)c2nnn([C@@H]3C[C@H](CO)[C@@H](O)C3)c2n1 (relative stereo) [Example 8, (1α, 2β, 4α)-4-(5-Amino-7-chloro-3H-1,2,3-triazolo[4,5-d]pyrimidin-3-yl)-2-hydroxycyclopentanemethanol] | 1.9 | 23 (≈ 80.8 µM) |  | < 1 |  |  | 1.6 |  | 
6 | Nc1nc(N)c2nnn([C@@H]3C[C@H](CO)[C@@H](O)C3)c2n1 (relative stereo) [Example 9, (1α, 2β, 4α)-4-(5,7-Diamino-3H-1,2,3-triazolo[4,5-d]pyrimidin-3-yl)-2-hydroxycyclopentanemethanol] | 2.3 | 10 (≈ 37.7 µM) |  | < 3.2 | equivalent or superior in activity and potency to Ara-A; also recorded: at least as effective as Ara-A against HSV-2 | more active (VR=4-5) and more potent (lower MIC50); also recorded: much more effective against HSV-1 than was Ara-A | 2.0 |  | 
7 | Nc1nc2c(nnn2[C@@H]2C[C@H](CO)[C@@H](O)C2)c(=O)[nH]1 (relative stereo) [Example 10, 5-Amino-3,6-dihydro-3-[(1α, 2β, 4α)-3-hydroxy-4-(hydroxymethyl)cyclopentyl]-7H-1,2,3-triazolo[4,5-d]pyrimidin-7-one] | 2.1 | 6.9 (≈ 25.9 µM) | 4.2 | 0.6 (≈ 2.25 µM) | equivalent or superior in activity and potency to Ara-A; also recorded: at least as effective as Ara-A against HSV-2 | more active (VR=4-5) and more potent (lower MIC50); also recorded: much more effective against HSV-1 than was Ara-A |  |  | 
8 | Nc1ncnc2c1ncn2[C@@H]1O[C@H](CO)[C@@H](O)[C@@H]1O [Ara-A, 9D-Arabinofuranosyladenine, reference compound] | 1.6-2.3 |  | 2.5-3.1 |  |  |  |  | 6.4 to 30 (≈ 23.9 to 112 µM) | 6.4 to 9.8 (≈ 23.9 to 36.7 µM)
